Laboratory results: PMC7999182, “Interaction of Remdesivir with Clinically Relevant Hepatic Drug Uptake Transporters” (Pharmaceutics, 2021)

Assays:
OATP1B1*1b = biological target: T1, OATP1B1*1b (Homo sapiens, UniProt Q9Y6L6, N130D); experiment: Remdesivir uptake into HEK cells stably expressing OATP1B1*1b vs vector control; type: in vitro ADME; conditions: 10 min
T1 construct: expressed in transfected cells
T1 sequence (Q9Y6L6 1-691 N130D): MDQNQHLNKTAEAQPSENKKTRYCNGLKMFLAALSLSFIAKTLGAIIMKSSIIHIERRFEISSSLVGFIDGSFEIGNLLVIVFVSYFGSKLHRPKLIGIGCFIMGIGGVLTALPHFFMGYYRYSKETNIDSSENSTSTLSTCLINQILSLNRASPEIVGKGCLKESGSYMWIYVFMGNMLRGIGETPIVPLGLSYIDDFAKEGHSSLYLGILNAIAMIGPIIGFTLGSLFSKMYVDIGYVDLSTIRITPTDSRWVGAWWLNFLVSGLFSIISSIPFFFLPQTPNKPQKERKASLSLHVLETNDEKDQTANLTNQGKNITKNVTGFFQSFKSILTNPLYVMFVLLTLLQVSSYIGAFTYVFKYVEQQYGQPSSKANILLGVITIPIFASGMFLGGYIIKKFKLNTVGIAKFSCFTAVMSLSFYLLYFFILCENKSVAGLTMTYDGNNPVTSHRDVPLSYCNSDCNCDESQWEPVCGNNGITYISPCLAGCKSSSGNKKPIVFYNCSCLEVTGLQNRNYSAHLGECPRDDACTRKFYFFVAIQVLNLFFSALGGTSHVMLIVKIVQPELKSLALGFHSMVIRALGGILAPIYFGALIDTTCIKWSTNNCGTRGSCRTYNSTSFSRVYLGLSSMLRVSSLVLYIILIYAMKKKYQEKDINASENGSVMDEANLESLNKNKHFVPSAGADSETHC
Text: (§1) Generation, cultivation and characterization of human embryonic kidney (HEK) cells stably expressing OATP1B1 refseq (=OATP1B1*1a), OATP1B1*1b, OATP1B1*5 and OATP1B1*15 [18], OATP1B3 [19], OATP2B1 [13] and OCT1 [20] have been described previously. OATP1B1 cells were cultivated in minimal essential medium (Life Technologies, Paisley, UK) and OATP1B3, OATP2B1 and OCT1 cells were cultivated in Dulbecco’s modified Eagle medium (Sigma, Darmstadt, Germany). Cultivation media were supplemented with 10% fetal calf serum, 100 U/mL penicillin and 100 µg/mL streptomycin. Cells were grown at 37 °C and 5% CO2. Functionality of the cells was confirmed by measuring uptake of prototypic substrates (see Section 2.3 and supplementary material).
(§2) Uptake assays were conducted at 37 °C according to previously described methods. For this, cells were seeded in 24-well plates (320,000 cells/well) and cultured for 2 days. Cells were then incubated for a further 24 h in culture medium with 5 mM butyrate (OATP1B3, OATP2B1, OCT1) or 10 mM butyrate (OATP1B1) to increase protein levels of recombinant transporters. […]
(§3) Remdesivir was determined by UHPLC-MS-MS analysis on an Agilent 1290 infinity UHPLC system coupled to an Agilent 6495B triple quadrupole mass spectrometer (Agilent, Waldbronn, Germany) similar to a recently published method. […]

OATP1B3 [1] = biological target: T2, OATP1B3 (Homo sapiens, UniProt Q9NPD5); experiment: Remdesivir uptake into HEK cells stably expressing OATP1B3 vs vector control; type: in vitro ADME; conditions: 5 µM remdesivir, 10 min, transporter-expressing vs control HEK cells
T2 construct: expressed in transfected cells
T2 sequence (Q9NPD5 1-702): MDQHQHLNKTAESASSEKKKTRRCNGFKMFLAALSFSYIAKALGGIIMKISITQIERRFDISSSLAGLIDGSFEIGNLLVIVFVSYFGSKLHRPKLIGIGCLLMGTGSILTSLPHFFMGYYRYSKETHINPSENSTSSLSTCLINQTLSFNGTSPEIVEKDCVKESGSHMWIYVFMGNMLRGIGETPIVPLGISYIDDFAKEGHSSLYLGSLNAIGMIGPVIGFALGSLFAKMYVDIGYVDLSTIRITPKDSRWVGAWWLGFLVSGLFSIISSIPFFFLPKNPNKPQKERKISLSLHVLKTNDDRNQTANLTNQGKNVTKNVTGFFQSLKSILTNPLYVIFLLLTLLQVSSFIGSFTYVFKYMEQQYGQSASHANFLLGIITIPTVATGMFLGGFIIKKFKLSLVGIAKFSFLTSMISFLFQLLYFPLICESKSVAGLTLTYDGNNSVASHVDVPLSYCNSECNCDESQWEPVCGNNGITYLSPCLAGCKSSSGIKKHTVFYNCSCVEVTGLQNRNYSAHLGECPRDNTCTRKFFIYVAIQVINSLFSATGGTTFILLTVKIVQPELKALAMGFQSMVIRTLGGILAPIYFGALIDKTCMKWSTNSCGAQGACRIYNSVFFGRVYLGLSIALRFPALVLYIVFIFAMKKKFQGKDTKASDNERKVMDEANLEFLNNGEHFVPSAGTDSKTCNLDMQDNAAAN
Text: as §1, §2, §3

OATP1B3 [2] = system: OATP1B3; design: method as in earlier work; conditions: prototypic substrate not stated; cited from earlier work

CCC(CC)COC(=O)[C@H](C)N[P@](=O)(OC[C@H]1O[C@@](C#N)(c2ccc3c(N)ncnn23)[C@H](O)[C@@H]1O)Oc1ccccc1 [Remdesivir]
Accumulation vs vector-transfected control cells (OATP1B1*1b; 5 µM remdesivir): moderately higher
Accumulation vs vector-transfected control cells (OATP1B1*1b; 50 µM remdesivir): moderately higher
Remdesivir uptake ratio (OATP1B3 [1]): 1.5
IC50 (OATP1B3 [2]): 2100 nM
